Test results reported in patent US6610333B1, “Feed supplement for arthropods” (Universita Degli Studi di Milano, priority 1998, dated 2003).

Tests used:
[1] = tested on: membrane vesicles purified from the midgut tissue of B. mori larvae; assay: Uptake of radiolabeled leucine into membrane vesicles from B. mori larval midgut; assay type: biochemical, Bombyx mori; conditions: 0.2 mM test substance, 0.1 mM L-leucine, pH 10.8, 7 seconds incubation; None (control) 450 ± 20
Experimental: The effect of different esters and aminoesters was tested in vitro by measuring the uptake of radiolabeled leucine into membrane vesicles purified from the midgut tissue of B. mori larvae.
Uptakes were measured by incubating 10 μl of membrane vesicles and 40 μl of a isosmotic mixture buffered at pH 10.8 and containing 0.1 mM L-leucine, 30 μCi/ml of L-[3H]-leucine as a tracer and 0.2 mM of the substances indicated. Incubations were stopped after 7 seconds by 75-fold dilution in an ice-cold isotonic saline and filtration through cellulose filters (0.2 μm mesh). Filters were then counted for radioactivity in a scintillation counter and data were expressed per mg of membrane proteins. Vesicles were prepared by calcium precipitation and differential centrifugation from Bombyx mori larval midgut according to standard biochemical protocols.

[2] = tested on: Bombyx mori larvae; assay: Rearing of Bombyx mori larvae on artificial diet supplemented with ester; assay type: in vivo; conditions: 130 mg per 1 kg of diet; for Percent of mortality: first three larval instars

`COC(=O)CCC(C)C` [4-methylvaleric methyl ester] was tested, and the Leucine uptake [1] was 2600 ± 80 pmol/7s/mg membrane protein.
For `CCCC[C@H](N)C(=O)OC` [Norleucine methyl ester], the Leucine uptake [1] was 3800 ± 100 pmol/7s/mg membrane protein.
`CCOC(=O)[C@@H](N)CC(C)C` [Leucine ethyl ester] was tested, and the Leucine uptake [1] was 2200 ± 75 pmol/7s/mg membrane protein.
For `CCC(C)CC(=O)OC` (stereo not shown) [3-methylvaleric methyl ester], the Leucine uptake [1] was 800 ± 30 pmol/7s/mg membrane protein.
`COC(=O)[C@@H](N)CC(C)C` [Leucine methyl ester, L-leucine methyl ester] was tested, and the “Weight of cocoon shell” value ([2]; Polyhybrid (28 × 15) × (10 × 14), control 0.32 ± 0.02) was 0.46 ± 0.03 g, the “Weight of cocoon shell” value ([2]; Race BG35, control 0.25 ± 0.02) was 0.31 ± 0.01 g and the Percent of mortality ([2]; Polyhybrid (28 × 15) × (10 × 14), control 19) was 0%. The Percent of mortality ([2]; Race 21 Molucelli, control 30) was 20% and the Leucine uptake [1] was 4500 ± 150 pmol/7s/mg membrane protein.
For `COC(=O)[C@@H](N)CCSC` [Methionine methyl ester, L-methionine methyl ester], the Leucine uptake [1] was 4000 ± 180 pmol/7s/mg membrane protein.
